One compound from publication PMC12281424, “A Rac-specific competitive inhibitor of guanine nucleotide binding reduces metastasis in triple-negative breast cancer” (Cell Reports Medicine, 2025) can be followed below.

Assay [1] addresses IRE1(h) (Homo sapiens, UniProt O75460). Put plainly: Kinase Profiler. The format is biochemical.
Method: (§4) Blood cell counts, kinase profiler, safety screen, bacterial cytotoxicity, Ames, micronucleus assays were performed by the company Eurofins (France). The kinase profiler was performed by the company Eurofins (Discovery, Panlab and Cerep).
The target in assay [2] is Adrenergic α2A (Homo sapiens, UniProt P08913). Nature of the assay: Safety screen. Format: binding.
Method: (§5) Blood cell counts, kinase profiler, safety screen, bacterial cytotoxicity, Ames, micronucleus assays were performed by the company Eurofins (France).
Assay [3] deals with CK1δ(h) (Homo sapiens, UniProt P48730). Put plainly: Kinase Profiler. The format is biochemical.
Method: (§6) The kinase profiler was performed by the company Eurofins (Discovery, Panlab and Cerep).
The target of assay [4] is FGFR4(h) (Homo sapiens, UniProt P22455). Put plainly: Kinase Profiler. The format is biochemical.
Method: as §6
The target of assay [5] is PI3K e (p110a/p65a)(h) (Homo sapiens, UniProt P42336). Nature of the assay: Kinase Profiler. Format: biochemical.
Method: as §6
Assay [6] concerns the target Cholinesterase, Acetyl, ACES (Homo sapiens, UniProt P22303).
Method: as §4
In assay [7] the target is MST2(h) (Homo sapiens, UniProt Q13188). Nature of the assay: Kinase Profiler. Format: biochemical.
Method: as §4
The target in assay [8] is LIMK1(h) (Homo sapiens, UniProt P53667). Put plainly: Kinase Profiler. Format: biochemical.
Method: as §6
The target of assay [9] is Fes(h) (Homo sapiens, UniProt P07332). Nature of the assay: Kinase Profiler. Format: biochemical.
Method: as §6
Assay [10] deals with Flt1(h) (Homo sapiens, UniProt P17948). Put plainly: Kinase Profiler. Format: biochemical.
Method: as §6
The target of assay [11] is PAK6(h) (Homo sapiens, UniProt Q9NQU5). Put plainly: Kinase Profiler. Format: biochemical.
Method: as §6
The target of assay [12] is PrKX(h) (Homo sapiens, UniProt P51817). Nature of the assay: Kinase Profiler. Format: biochemical.
Method: as §6
Assay [13] concerns the target T1, RAC2 (Homo sapiens, UniProt P15153).
T1 construct: Full-length RAC2, RHOG, RHOA and CDC42 were purified as previously described; made in house
Nature of the assay: GEF-stimulated nucleotide exchange. Format: biochemical. The arrangement: dose or concentration left out as unconfirmed. The source says:
(§1) Figure 4 A41 selectively impairs RAC protein activation (A) Representative surface plasmon resonance (SPR) sensograms of binding of immobilized RHOA or CDC42 with indicated increasing concentrations of A41 (N > 3). (B) Effect of A41 on GEF-stimulated RAC2, RHOG, RHOA, and CDC42 nucleotide exchange. […] Kobs is expressed as mean ± SEM. ∗p < 0.001 vs. control. (C) Effect of A41 on RAC1 G30S activation. […] The GEF TRIO was used to induce nucleotide exchange (N = 3). Data are expressed as mean ± SEM. (D) Immunoblot analysis and associated quantification of RAC-GTP level and total RAC expression in NIH-3T3 fibroblasts expressing RAC wild-type (RAC1 WT) or RAC1 oncomutants (RAC1 P29S and RAC1b) in the absence (Ctrl) and presence of A41 (10 μM). RAC activation was measured as the ratio of RAC-GTP to total RAC and expressed relative to Ctrl condition. Data are presented as mean ± SEM. ∗∗∗p < 0.001 vs. controls.
(§2) Full-length RAC1 carrying a 6xHis tag in C-terminus was purified as previously described.[64] […] Specific exchange activity toward RHOA determined by fluorescence kinetics is 0.04 s^−1M^−1.
(§3) Nucleotide exchange kinetics were measured by recording the increase in fluorescence following the association of mant-GTP on GDP-bound RHO protein or the decay in fluorescence following the dissociation of mant-GDP pre-loaded onto the RHO protein (λEx = 360 nm, λEm = 440 nm) as previously described.[39] […]

The target of assay [14] is T2, RHOG (Homo sapiens, UniProt P84095).
T2 construct: Full-length RAC2, RHOG, RHOA and CDC42 were purified as previously described; made in house
Put plainly: GEF-stimulated nucleotide exchange. Format: biochemical. The arrangement: dose or concentration left out as unconfirmed.
Excerpt: as §1, §2, §3

Assay [15] addresses MKK6(h) (Homo sapiens, UniProt P52564). Put plainly: Kinase Profiler. The format is biochemical.
Method: as §6
The target in assay [16] is CK2(h) (Homo sapiens, UniProt P68400). Put plainly: Kinase Profiler. Format: biochemical.
Method: as §6
For assay [17], the target named is Muscarinic M2 (Homo sapiens, UniProt P08172). Nature of the assay: Safety screen. Format: binding.
Method: as §5

MST2(h), sequence (Q13188 whole entry): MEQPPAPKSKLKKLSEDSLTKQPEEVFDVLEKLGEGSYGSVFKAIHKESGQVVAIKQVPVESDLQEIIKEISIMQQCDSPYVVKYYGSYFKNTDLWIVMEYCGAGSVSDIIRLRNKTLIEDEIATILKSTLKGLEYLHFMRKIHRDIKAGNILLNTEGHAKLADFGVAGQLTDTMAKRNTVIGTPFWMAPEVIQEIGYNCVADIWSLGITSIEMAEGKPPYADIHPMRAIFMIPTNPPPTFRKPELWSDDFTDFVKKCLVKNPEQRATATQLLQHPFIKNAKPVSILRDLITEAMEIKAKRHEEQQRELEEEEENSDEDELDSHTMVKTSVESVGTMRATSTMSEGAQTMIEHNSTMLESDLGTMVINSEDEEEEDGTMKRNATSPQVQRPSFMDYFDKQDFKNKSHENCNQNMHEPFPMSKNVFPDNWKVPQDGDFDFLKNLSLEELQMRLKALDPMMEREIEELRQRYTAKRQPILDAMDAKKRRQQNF
Adrenergic α2A, sequence (P08913 whole entry): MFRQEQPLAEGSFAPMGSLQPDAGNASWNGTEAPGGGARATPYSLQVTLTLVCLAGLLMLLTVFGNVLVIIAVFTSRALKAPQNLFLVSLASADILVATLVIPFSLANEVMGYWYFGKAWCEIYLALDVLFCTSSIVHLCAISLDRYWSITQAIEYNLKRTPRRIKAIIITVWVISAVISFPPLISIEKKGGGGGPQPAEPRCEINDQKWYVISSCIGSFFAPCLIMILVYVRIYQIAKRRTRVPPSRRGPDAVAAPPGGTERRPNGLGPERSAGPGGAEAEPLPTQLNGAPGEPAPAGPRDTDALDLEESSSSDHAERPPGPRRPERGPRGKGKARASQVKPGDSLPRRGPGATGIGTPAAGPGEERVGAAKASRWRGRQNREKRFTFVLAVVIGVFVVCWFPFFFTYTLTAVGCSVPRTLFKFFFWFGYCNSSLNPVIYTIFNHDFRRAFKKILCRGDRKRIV
Flt1(h), sequence (P17948 27-1338): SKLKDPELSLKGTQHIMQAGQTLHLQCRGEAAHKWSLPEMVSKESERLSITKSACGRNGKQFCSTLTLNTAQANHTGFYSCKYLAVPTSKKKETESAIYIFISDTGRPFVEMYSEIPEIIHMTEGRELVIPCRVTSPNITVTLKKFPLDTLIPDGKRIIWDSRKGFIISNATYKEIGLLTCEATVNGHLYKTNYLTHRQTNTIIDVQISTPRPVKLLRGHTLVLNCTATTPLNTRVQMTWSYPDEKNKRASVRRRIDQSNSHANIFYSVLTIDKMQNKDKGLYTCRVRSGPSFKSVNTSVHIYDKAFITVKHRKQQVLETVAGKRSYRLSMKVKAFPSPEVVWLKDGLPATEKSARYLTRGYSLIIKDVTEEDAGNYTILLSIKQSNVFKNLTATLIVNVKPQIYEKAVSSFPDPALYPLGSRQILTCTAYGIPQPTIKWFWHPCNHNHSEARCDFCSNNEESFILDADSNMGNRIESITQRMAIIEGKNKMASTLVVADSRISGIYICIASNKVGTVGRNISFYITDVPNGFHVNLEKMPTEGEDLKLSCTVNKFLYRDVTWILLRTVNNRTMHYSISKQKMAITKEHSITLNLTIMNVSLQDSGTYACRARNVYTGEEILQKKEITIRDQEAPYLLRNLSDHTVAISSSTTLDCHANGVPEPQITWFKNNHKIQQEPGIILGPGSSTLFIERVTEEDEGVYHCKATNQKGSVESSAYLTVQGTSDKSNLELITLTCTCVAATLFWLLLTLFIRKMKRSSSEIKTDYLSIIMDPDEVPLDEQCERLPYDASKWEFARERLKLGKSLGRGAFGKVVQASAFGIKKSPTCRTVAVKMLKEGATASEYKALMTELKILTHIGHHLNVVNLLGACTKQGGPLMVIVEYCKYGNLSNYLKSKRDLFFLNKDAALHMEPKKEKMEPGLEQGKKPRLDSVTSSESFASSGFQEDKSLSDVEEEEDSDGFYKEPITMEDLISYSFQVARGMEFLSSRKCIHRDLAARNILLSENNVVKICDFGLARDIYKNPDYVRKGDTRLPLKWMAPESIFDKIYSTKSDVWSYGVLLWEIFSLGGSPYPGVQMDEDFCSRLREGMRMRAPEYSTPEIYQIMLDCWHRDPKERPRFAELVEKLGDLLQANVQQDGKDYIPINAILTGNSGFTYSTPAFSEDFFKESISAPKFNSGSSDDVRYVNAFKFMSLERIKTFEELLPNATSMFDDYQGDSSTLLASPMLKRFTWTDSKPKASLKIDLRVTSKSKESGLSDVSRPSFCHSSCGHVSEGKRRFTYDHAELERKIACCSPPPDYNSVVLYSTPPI
T2 sequence (P84095 whole entry): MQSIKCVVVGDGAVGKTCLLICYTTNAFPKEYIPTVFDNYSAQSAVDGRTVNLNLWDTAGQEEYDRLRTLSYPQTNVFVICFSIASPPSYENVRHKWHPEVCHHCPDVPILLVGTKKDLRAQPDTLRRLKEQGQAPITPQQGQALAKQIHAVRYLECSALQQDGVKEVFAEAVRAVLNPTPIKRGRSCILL
CK1δ(h), sequence (P48730 whole entry): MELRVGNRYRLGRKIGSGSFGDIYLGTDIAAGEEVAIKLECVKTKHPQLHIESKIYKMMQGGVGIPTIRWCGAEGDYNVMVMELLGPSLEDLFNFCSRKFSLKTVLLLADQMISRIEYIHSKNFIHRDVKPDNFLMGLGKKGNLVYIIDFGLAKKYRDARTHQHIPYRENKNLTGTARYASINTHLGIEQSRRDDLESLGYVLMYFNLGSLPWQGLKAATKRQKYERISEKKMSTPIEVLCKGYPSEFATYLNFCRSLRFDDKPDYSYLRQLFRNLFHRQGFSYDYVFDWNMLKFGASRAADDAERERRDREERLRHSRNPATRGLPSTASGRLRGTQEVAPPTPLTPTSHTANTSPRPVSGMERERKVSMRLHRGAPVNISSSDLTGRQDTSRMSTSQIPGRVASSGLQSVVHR
PrKX(h), sequence (P51817 whole entry): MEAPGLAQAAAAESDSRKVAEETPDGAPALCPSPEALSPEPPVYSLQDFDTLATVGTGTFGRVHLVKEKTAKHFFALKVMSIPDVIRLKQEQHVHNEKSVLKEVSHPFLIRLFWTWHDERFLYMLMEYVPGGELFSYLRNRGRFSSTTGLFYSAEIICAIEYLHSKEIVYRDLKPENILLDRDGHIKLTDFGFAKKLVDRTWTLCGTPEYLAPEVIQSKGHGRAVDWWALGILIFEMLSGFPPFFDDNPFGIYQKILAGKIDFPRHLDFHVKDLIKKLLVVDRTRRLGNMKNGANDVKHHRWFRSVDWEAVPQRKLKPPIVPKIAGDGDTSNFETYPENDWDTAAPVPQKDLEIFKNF
IRE1(h), sequence (O75460 19-977): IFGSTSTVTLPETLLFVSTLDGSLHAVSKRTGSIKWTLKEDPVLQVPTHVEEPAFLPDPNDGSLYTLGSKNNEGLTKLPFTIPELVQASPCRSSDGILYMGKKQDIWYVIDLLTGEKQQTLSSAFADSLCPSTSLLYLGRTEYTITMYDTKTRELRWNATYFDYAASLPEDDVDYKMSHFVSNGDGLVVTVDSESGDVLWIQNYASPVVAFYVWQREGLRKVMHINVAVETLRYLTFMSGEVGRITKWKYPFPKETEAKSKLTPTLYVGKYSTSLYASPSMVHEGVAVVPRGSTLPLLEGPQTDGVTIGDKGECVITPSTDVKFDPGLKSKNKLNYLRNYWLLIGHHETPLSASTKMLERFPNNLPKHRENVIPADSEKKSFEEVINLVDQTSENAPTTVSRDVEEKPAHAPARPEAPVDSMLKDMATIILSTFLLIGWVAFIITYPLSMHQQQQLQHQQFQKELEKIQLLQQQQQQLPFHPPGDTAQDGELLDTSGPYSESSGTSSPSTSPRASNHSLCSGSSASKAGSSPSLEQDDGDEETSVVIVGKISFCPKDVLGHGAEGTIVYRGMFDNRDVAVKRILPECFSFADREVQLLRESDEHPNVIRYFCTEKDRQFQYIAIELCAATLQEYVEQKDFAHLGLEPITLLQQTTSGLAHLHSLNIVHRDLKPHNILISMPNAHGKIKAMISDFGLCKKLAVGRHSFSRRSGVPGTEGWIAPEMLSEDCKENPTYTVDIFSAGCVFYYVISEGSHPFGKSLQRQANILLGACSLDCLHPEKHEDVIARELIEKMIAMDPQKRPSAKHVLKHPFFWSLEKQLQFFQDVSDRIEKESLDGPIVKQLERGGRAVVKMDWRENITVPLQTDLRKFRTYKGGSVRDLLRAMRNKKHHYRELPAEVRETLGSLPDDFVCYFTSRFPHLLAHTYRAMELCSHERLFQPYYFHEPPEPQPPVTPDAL
Cholinesterase, Acetyl, ACES, sequence (P22303 32-614): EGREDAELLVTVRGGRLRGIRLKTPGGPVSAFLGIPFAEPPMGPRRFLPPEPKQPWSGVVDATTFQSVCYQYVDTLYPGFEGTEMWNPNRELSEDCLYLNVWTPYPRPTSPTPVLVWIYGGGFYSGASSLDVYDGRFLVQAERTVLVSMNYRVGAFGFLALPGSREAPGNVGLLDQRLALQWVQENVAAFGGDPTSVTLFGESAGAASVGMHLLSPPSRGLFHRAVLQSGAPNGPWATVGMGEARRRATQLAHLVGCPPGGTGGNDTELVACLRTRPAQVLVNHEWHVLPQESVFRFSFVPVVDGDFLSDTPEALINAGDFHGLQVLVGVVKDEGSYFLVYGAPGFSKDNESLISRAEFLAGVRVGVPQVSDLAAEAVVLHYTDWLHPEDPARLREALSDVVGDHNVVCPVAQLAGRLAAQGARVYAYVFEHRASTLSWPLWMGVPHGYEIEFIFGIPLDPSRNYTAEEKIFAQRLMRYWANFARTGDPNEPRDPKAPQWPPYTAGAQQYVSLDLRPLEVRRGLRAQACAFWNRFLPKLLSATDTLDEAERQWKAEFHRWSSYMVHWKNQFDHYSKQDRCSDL

On to `COc1ccc(OC)c(NS(=O)(=O)c2ccc(NC(=O)CCSc3ccc(C)cc3)cc2)c1` [Compound A41], for which the “Activity(%)” value came out at 101% in assay [1]; 96% in assay [3]; 116% in [4]; 102% in assay [5]; 88% in [7]; 113% in [8]. Also, the “Activity(%)” value was determined as 116% in [9]; 103% in assay [10]; 99% in assay [11]; 98% in assay [12]; 90% in assay [15]; 110% in assay [16]. The “% inh.” value in assay [2] worked out at 29%; in assay [6], 64%; in [17] it was 12%. The “TRIO-induced activation of RAC2” value in assay [13] is “reduced”. Moreover, the “TRIO-induced RHOG activation” value in assay [14] is “no effect”.
